Results reported in ChEMBL document CHEMBL5365449, “Permeation behavior of porphyrin derivatives with different functional group positions across cancer cell membranes” (Bioorg Med Chem Lett, 2023).

What was measured:
[1] = Drug accumulation of the compound in human MCF7 cells assessed as accumulation at 4 degC by fluorescence microscopy; type: ADME, cell-based
[2] = Drug uptake in human MCF7 cells assessed as increase in internalization by measuring fold increase of fluorescence intensity in the presence of LDL by fluorescence spectrum analysis; type: ADME, cell-based
[3] = Drug accumulation of the compound in human MCF7 cells assessed as accumulation at lysosome by fluorescence microscopy; type: ADME, subcellular
[4] = Drug accumulation of the compound in human MCF7 cells assessed as accumulation at mitochondria by fluorescence microscopy; type: ADME

Structure (SMILES) | Drug uptake [1] | fold change (FC) [2] | Drug uptake [3] | Drug uptake [4]
O=C(Nc1ccc(-c2c3nc(c(-c4ccccc4)c4ccc([nH]4)c(-c4ccccc4)c4nc(c(-c5ccccc5)c5ccc2[nH]5)C=C4)C=C3)cc1)c1ccccc1 | 3.7 10^-2microM | 6 | Active | Active
O=C(NC1=Cc2nc1c(-c1ccccc1)c1ccc([nH]1)c(-c1ccccc1)c1nc(c(-c3ccccc3)c3ccc([nH]3)c2-c2ccccc2)C=C1)c1ccccc1 | 7.5 10^-2microM | 12 | Active | Active
